According to patent publication US20150320704A1, “COMPOSITIONS AND METHODS FOR TREATMENT OF HAIR LOSS” (DS Healthcare Group, Inc., priority 2014, published 2015):

Tested on: male subjects experiencing active thinning-hair
Assay: Hair regrowth study, double blind, daily topical application for 90 days
Type: in vivo, human
Settings: Example 2: study of Example 1 repeated, formulation of vehicle and one pimarene compound, lacking other pine resin compounds
Experimental: A double blind study was performed on male subjects between the ages of 25 and 55 years who had been experiencing active thinning-hair. […] A global photograph of each subject was taken from the crown area and a second photograph was taken of the top of the head to track frontal areas. […] In addition to the pimarene compounds, the formulations contained pine resin compounds that are not calcium channel opening agents, including abietic acid, neoabietic acid, dehydroabietic acid, and palustric acid. The target sites of each subject were monitored over the 90 day period and photographs were again obtained at the end of this period and compared to those at baseline.
The formulation lacks a pine resin compound other than a pimarene compound.
For C=C[C@@]1(C)C=C2CC[C@@H]3[C@](C)(CCC[C@@]3(C)C(=O)O)[C@H]2CC1 [pimaric acid], the “hair thickness and growth, outcome of treatment” value (“hair thickness and growth” below) was “improvement in hair thickness and growth in a majority of the subjects”.
For dihydropimaric acid, the “hair thickness and growth” value was “improvement in hair thickness and growth in a majority of the subjects”.
For C=C[C@@]1(C)CC[C@H]2C(=CC[C@@H]3[C@]2(C)CCC[C@@]3(C)C(=O)O)C1 [isopimaric acid], the “hair thickness and growth” value was “improvement in hair thickness and growth in a majority of the subjects”.
With CC[C@@]1(C)CC[C@H]2C(=CC[C@H]3[C@](C)(CO)CCC[C@]23C)C1 [dihydroisopimarinol] the “hair thickness and growth” value was “improvement in hair thickness and growth in a majority of the subjects”.
For CC[C@@]1(C)CC[C@H]2C(=CCC3[C@]2(C)CCC[C@]3(C)C(=O)O)C1 (some centres unmarked) [dihydroisopimaric acid], the “hair thickness and growth” value was “improvement in hair thickness and growth in a majority of the subjects”.
With C=C[C@]1(C)C=C2CC[C@@H]3[C@](C)(CCC[C@@]3(C)C(=O)O)[C@H]2CC1 [sandaracopimaric acid] the “hair thickness and growth” value was “improvement in hair thickness and growth in a majority of the subjects”.

Same assay, conditions: Example 3: study of Example 1 repeated, formulation of vehicle and a potassium channel opening agent other than pimarene compounds
In the case of FC(F)(F)C(Cl)Br (centres unmarked) [halothane], the “hair thickness and growth” value is reported as “improvement in hair thickness and growth in a majority of the subjects”.
With CC(C(O)c1ccc(O)cc1)N1CCC(Cc2ccccc2)CC1 (centres unmarked) [ifenprodil] the “hair thickness and growth” value was “improvement in hair thickness and growth in a majority of the subjects”.
With COc1ccc(Cl)cc1[C@]1(F)C(=O)Nc2cc(C(F)(F)F)ccc21 [BIAS-204352] the “hair thickness and growth” value was “improvement in hair thickness and growth in a majority of the subjects”.

Tested on: humans
Assay: not given
Settings: cited from earlier work
For CC(N/C(=N\C#N)Nc1ccncc1)C(C)(C)C (centres unmarked) [pinacidil], the hypertrichosis is given as “cause hypertrichosis”.
For CC1=NS(=O)(=O)c2cc(Cl)ccc2N1 [diazoxide], the hypertrichosis is given as “cause hypertrichosis”.

Tested on: balding macaques
Assay: not given
Settings: topical application, 20-week treatment period; cited from earlier work
For CCC(C)(C)N=C(NC#N)Nc1cccnc1 [P-1075], the scalp hair growth is listed as “stimulated hair growth”.
In the case of CNC(=S)[C@]1(c2cccnc2)CCCC[S+]1[O-] (some centres unmarked) [RP-49,356], the scalp hair growth is listed as “not effective in promoting hair growth”.
For CC1(C)Oc2ccc(C#N)cc2C(N2CCCC2=O)C1O (centres unmarked) [cromakalin], the scalp hair growth is given as “stimulated hair growth”.
